According to paper PMC6327987, “Synthesis and biological evaluation of novel N^9-heterobivalent β-carbolines as angiogenesis inhibitors” (Journal of Enzyme Inhibition and Medicinal Chemistry, 2019):
Values joined by “and” are separate entries in the source; they are usually repeats but may differ in a detail not shown here. Equal values may be shown once. “Also recorded” adds a separate entry of the source. Read-outs that look alike come from different tables or passages of the source.

Legend:
BGC-823 = assay: MTT cytotoxicity, gastric carcinoma cells; type: cell-based; settings: Homo sapiens; MTT assay, gastric carcinoma BGC-823, mean ± SD of at least three determinations
Description: (§1) Target compounds were assayed by the MTT method for cytotoxic activity, as described previously. The panel of cell lines included gastric carcinoma (BGC-823), liver carcinoma (HepG2), breast carcinoma (MCF-7), colon carcinoma (HT-29), esophageal carcinoma (Eca-109), and Lewis lung carcinoma (LLC). Growth inhibition rates were calculated with the following equitation: Inhibition ratio (%)= ODcompd−ODblank/ODDMSO−ODblank×100% . Half maximal inhibitory concentration (IC50) of each compound was calculated using software Graph-Pad Prism (version 6.0).
(§2) All the 24 novel synthesized N^9-heterobivalent β-carbolines (5a-x) were screened for their in vitro cytotoxic activities against six different cancer cell lines, namely BGC-823 (gastric carcinoma), HepG2 (liver carcinoma), MCF-7 (breast carcinoma), HT-29 (colon carcinoma), Eca-109 (esophageal carcinoma) and LLC (Lewis lung carcinoma). The IC50 values were the average of at least three independent experiments.

HepG2 = assay: MTT cytotoxicity, liver carcinoma cells; type: cell-based; settings: Homo sapiens; MTT assay, liver carcinoma HepG2, mean ± SD of at least three determinations
Description: as §1, §2

MCF-7 = assay: MTT cytotoxicity, breast carcinoma cells; type: cell-based; settings: Homo sapiens, MCF7; MTT assay, breast carcinoma MCF-7, mean ± SD of at least three determinations
Description: as §1, §2

HT-29 = assay: MTT cytotoxicity, colon carcinoma cells; type: cell-based; settings: Homo sapiens; MTT assay, colon carcinoma HT-29, mean ± SD of at least three determinations
Description: as §1, §2

Eca-109 = assay: MTT cytotoxicity, esophageal carcinoma cells; type: cell-based; settings: Homo sapiens, ECa-109, MTT assay, esophageal carcinoma Eca-109, mean ± SD of at least three determinations
Description: as §1, §2

LLC = assay: MTT cytotoxicity, Lewis lung carcinoma cells; type: cell-based; settings: Lewis lung carcinoma, MTT assay, mean ± SD of at least three determinations
Description: as §1, §2

KM mice [1] = assay: Acute toxicity in mice (i.p.); type: in vivo; settings: for Acute toxicity Neurotoxic effect: KM mice, intraperitoneal; for Acute toxicity LD50: both, KM, mouse, in vivo, ip, 14 days
Description: Specific pathogen-free KM mice (6–8 weeks old) weighing 19–22 g were housed in a mouse room at 24 ± 2 °C and 60–70% humidity with 12 h light/dark cycles. The mice were provided rodent laboratory chow pellets and tap water for a week to adapt to the environment of the mouse room. The experimental protocol was approved by the Institutional Animal Ethical Committee, and all of the animals were provided by Laboratory Animal Center of Xinjiang Uygur Autonomous Region. Prior to each experiment, mice were fastened overnight and allowed free access to water. Various doses of the asymmetric dimeric β-carboline derivatives, ranging from 5.0 to 500 mg kg^−1 dissolved in 0.5% carboxymethyl cellulose sodium (CMC-Na) salt solution, were given intraperitoneally to different groups of healthy KM mice, and each group contained 10 mice (5 males and 5 females). After the administration of the compounds, the mice were observed continuously for the first 2 h for any gross behavioral changes and deaths, then intermittently for the next 24 h, and occasionally thereafter for 14 days, and for the onset of any delayed effects. All of the animals were killed on the 14th day after drug administration, and they were checked macroscopically for possible damage to the heart, liver, and kidneys. Mice that experienced immediate death following drug administration were also examined for any possible organ damage. LD50 values were calculated graphically as described.
The LD50 values of the selected N^9-heterobivalent β-carbolines in mice after intraperitoneal (i.p.) administration are shown in Table 2. […] Death occurred mostly in the high dosage group within 4–8 h after injection. All of the surviving animals returned to normal within the next day.

angiogenesis of CAM = assay: Chicken chorioallantoic membrane (CAM) angiogenesis assay; type: in vivo; settings: gelatin sponge discs 0.5, 5.0 and 50 µM/disc, 48 h, blood vessels counted
Description: Anti-angiogenic activity of the selected compounds 5b and 5w were investigated in vivo using a CAM assay. Five-day-old fertilized eggs were obtained from a local hatchery. We injected 5 ml of albumin, and the eggs were incubated horizontally to allow the CAM to detach from the shell to produce a sham chamber. Compounds 5b and 5w were prepared in gelatin sponge discs (5 × 5 × 5 mm^3) at the concentration of 0.5, 5.0, and 50 µM/disc, respectively. CA4P was used as the positive control drug. Discs containing the vehicle only (DMSO) were used as the negative control. A small window opening was made in the shell, and the discs were directly applied onto the CAM. The square opening was covered with sterilized surgical tape and the embryos were incubated for 48 h at 38.5 °C. The CAMs were photographed under a dissecting microscope and blood vessels in each CAM were counted. The results are presented as a mean percentage of inhibition to the control ± SD, (n = 3).
The anti-angiogenetic activity of compounds 5b and 5w were semi-quantitatively analyzed using Graph Pad Prism 5.0 (shown in Figure 2(B)).

[2] = system: six tumor cell lines (BGC-823, HepG2, MCF-7, HT-29, Eca-109, LLC); assay: MTT cytotoxicity, panel of six tumour cell lines (summary statements); type: cell-based; settings: MTT assay, statement over all cell lines tested; read-out: IC50 against the tested six tumor cell lines
Description: as §1, §2

Sarcoma 180 [3] = assay: In vivo antitumor activity, Sarcoma 180-bearing mice; settings: i.p. once a day for seven days at the dosage of Table 2 (about one-fifth of LD50; CTX 30 mg kg^−1), tumour weight day 21, mean ± SD
Description: (§3) Sarcoma180 and Lewis lung cancer cell lines were provided by Shanghai Institute of Pharmaceutical Industry. Mice were inoculated with Sarcoma180 and Lewis lung cancer tumour cells. After 7 days, the tumours were removed and the cells were harvested. Mice received subcutaneous injections of viable tumour cells (2 × 10^6 cells/mouse) in the armpit. […] CTX at 30 mg kg^−1 was used as the positive control and the vehicle as the negative control. The weight of the animals was recorded every three days. All of the animals were killed on the 21st day after tumour inoculation, and the tumours were excised and weighed. The inhibition rate was calculated as follows: (C−T)/C×100 where T is the average tumor weight of the treated group and C is the average tumor weight of the negative control group.

Lewis lung cancer [4] = assay: In vivo antitumor activity, Lewis lung cancer-bearing mice; settings: i.p. once a day for seven days at the dosage of Table 2 (about one-fifth of LD50; CTX 30 mg kg^−1), tumour weight day 21, mean ± SD
Description: as §3

Sarcoma 180 [5] = system: Sarcoma 180; parameters: method as in PMID 12620075; settings: mice, dosage 40 mg kg^−1; cited from earlier work
Lewis lung cancer [6] = system: Lewis lung cancer; parameters: method as in PMID 12620075; settings: mice, dosage 40 mg kg^−1; cited from earlier work
KM mice [7] = settings: mouse, in vivo; cited from earlier work

Cc1nccc2c3ccccc3n(CCCCn3c4ccccc4c4ccnc(-c5cccnc5)c43)c12 [Compound 5b, 1–(3-pyridyl)-9–(4-(1-methyl-β-carboline-9-yl)butyl)-β-carboline]
IC50 (BGC-823): 12.1 ± 2.3 µM
IC50 (HepG2): 15.9 ± 1.4 µM
IC50 (MCF-7): 8.4 ± 1.7 µM
IC50 (HT-29): 12.6 ± 1.2 µM
IC50 (Eca-109): 10.5 ± 1.3 µM
IC50 (LLC): 12.4 ± 2.1 µM
Acute toxicity Neurotoxic effect (KM mice [1]): –^b
Acute toxicity LD50 (KM mice [1]): 150 mg/kg
Anti-angiogenic effect in CAM assay (in words) (angiogenesis of CAM): could inhibit the angiogenesis of CAM; also recorded: inhibited angiogenesis
IC50 [2]: < 20 µM

COc1ccc2c3ccnc(C)c3n(CCCCn3c4ccccc4c4ccnc(-c5cccs5)c43)c2c1 [Compound 5w, 7-methoxy-1-methyl-9–(4-(1–(2-thienyl)-β-carboline-9-yl)butyl)-β-carboline]
IC50 (BGC-823): 16.5 ± 1.9 µM
IC50 (HepG2): 15.4 ± 2.7 µM
IC50 (MCF-7): 14.1 ± 1.4 µM
IC50 (HT-29): 13.1 ± 3.5 µM
IC50 (Eca-109): 15.4 ± 1.9 µM
IC50 (LLC): 13.1 ± 2.4 µM
Acute toxicity Neurotoxic effect (KM mice [1]): +
Acute toxicity LD50 (KM mice [1]): 50 mg/kg
Anti-angiogenic effect in CAM assay (in words) (angiogenesis of CAM): inhibited angiogenesis
IC50 [2]: < 20 µM

O=P1(N(CCCl)CCCl)NCCCO1 (centres unmarked) [CTX, Cyclophosphamide, reference compound]
Tumor inhibition rate (%) Sarcoma 180 (Sarcoma 180 [3]): 82.5 ± 3.4%
Tumor inhibition rate (%) Lewis lung cancer (Lewis lung cancer [4]): 80.7 ± 2.1%

Cc1nccc2c3ccccc3n(CCCCn3c4ccccc4c4ccnc(C)c43)c12 [Compound B-9-3, 1-Methyl-9-[4–(1-methyl-β-carboline-9-yl)butyl]-β-carboline, reference compound]
IC50 (BGC-823): 22.3 ± 2.9 µM
IC50 (HepG2): > 100 µM
IC50 (MCF-7): 13.2 ± 1.5 µM
IC50 (HT-29): 40.6 ± 5.8 µM
IC50 (Eca-109): 14.5 ± 2.2 µM
IC50 (LLC): 6.1 ± 0.9 µM
Tumor inhibition rate (%) Sarcoma 180 (Sarcoma 180 [5]): 56.2%
Tumor inhibition rate (%) Lewis lung cancer (Lewis lung cancer [6]): 40.4%
Acute toxicity LD50 (KM mice [7]): 200 mg/kg

Cc1nccc2c3ccccc3n(CCCCn3c4ccccc4c4ccnc(-c5ccccc5Cl)c43)c12 [Compound 5i, 1–(2-chlorophenyl)-9–(4-(1-methyl-β-carboline-9-yl)butyl)-β-carboline]
IC50 (BGC-823): 37.9 ± 4.2 µM
IC50 (HepG2): 23.9 ± 3.7 µM
IC50 (MCF-7): 95.5 ± 14.8 µM
IC50 (HT-29): 28.3 ± 1.6 µM
IC50 (Eca-109): 23.4 ± 4.1 µM
IC50 (LLC): 44.7 ± 3.6 µM
IC50 [2]: 18.8 to 97.6 µM
melting point: 232 to 232.8 °C

COc1ccc2c3ccnc(C)c3n(CCCCCn3c4ccccc4c4ccnc(C)c43)c2c1 [Compound 5t, 7-methoxy-1-methyl-9–(5-(1-methyl-β-carboline-9-yl)pentyl)-β-carboline]
IC50 (BGC-823): 42.7 ± 2.9 µM
IC50 (HepG2): 31.6 ± 2.2 µM
IC50 (MCF-7): 17.6 ± 3.4 µM
IC50 (HT-29): 4.5 ± 0.6 µM
IC50 (Eca-109): 51.9 ± 7.4 µM
IC50 (LLC): 3.1 ± 0.4 µM
Acute toxicity Neurotoxic effect (KM mice [1]): +
Acute toxicity LD50 (KM mice [1]): 35 mg/kg
Tumor inhibition rate (%) Sarcoma 180 (Sarcoma 180 [3]): 37.2% and 37.2 ± 4.4%

Cc1nccc2c3ccccc3n(CCCCCn3c4ccccc4c4ccnc(-c5cccnc5)c43)c12 [Compound 5c, 1–(3-pyridyl)-9–(5-(1-methyl-β-carboline-9-yl)pentyl)-β-carboline]
IC50 (BGC-823): 22.6 ± 1.9 µM
IC50 (HepG2): 10.5 ± 2.1 µM
IC50 (MCF-7): 15.3 ± 2.6 µM
IC50 (HT-29): 13.3 ± 2.4 µM
IC50 (Eca-109): 25.3 ± 3.2 µM
IC50 (LLC): 5.7 ± 1.2 µM
Acute toxicity LD50 (KM mice [1]): 175 mg/kg
Tumor inhibition rate (%) Sarcoma 180 (Sarcoma 180 [3]): 33.6% and 33.6 ± 9.2%
